Experimental data from patent US20090304692A1, “TRIAZINE COMPOUNDS AS PI3 KINASE AND MTOR INHIBITORS” (Wyeth, priority 2008, published 2009).
Several values for one entry are separate records, joined by “and”; a condition that tells them apart may be missing. Equal entries are not always repeated. Where two headings read alike, the source gives them in different places.

Assays:
Human mTOR (FLAG-TOR) = Human mTOR (FLAG-TOR) (Homo sapiens, UniProt P42345); assay: mTOR kinase assay (DELFIA format, purified enzyme); format: biochemical; settings: read-out: IC50 mTOR
PI3K-α = PI3K-α (Homo sapiens, UniProt P42336); assay: PI3K-alpha fluorescence polarization assay; settings: read-out: IC50 PI3Kα
[1] = test system: human prostate PC3-mm2 tumor cell line; assay: In vitro cell culture growth assay (MTS), PC3-mm2; format: cell-based
[2] = test system: human breast MDA-MB-361 tumor cell line; assay: In vitro cell culture growth assay (MTS), MDA-MB-361; format: cell-based
PI3K-γ = PI3K-γ (Homo sapiens, UniProt P48736); assay: PI3K-gamma fluorescence polarization assay; settings: read-out: IC50 PI3Kγ
[3] = Homo sapiens, PC3MM2, 72 h, MTS cell growth assay, three days after drug treatment, read-out: IC50 PC3-mm2
[4] = Homo sapiens, MDA-MB-361, 72 h, MTS cell growth assay, three days after drug treatment, read-out: IC50 MDA-MB-361
[5] = Homo sapiens, PC3MM2, 72 h, MTS cell growth assay, three days after drug treatment, PC3-mm2 cells, read-out: IC50 PC3-mm2

Chain of Human mTOR (FLAG-TOR) (P42345 1360-2549 limits assumed): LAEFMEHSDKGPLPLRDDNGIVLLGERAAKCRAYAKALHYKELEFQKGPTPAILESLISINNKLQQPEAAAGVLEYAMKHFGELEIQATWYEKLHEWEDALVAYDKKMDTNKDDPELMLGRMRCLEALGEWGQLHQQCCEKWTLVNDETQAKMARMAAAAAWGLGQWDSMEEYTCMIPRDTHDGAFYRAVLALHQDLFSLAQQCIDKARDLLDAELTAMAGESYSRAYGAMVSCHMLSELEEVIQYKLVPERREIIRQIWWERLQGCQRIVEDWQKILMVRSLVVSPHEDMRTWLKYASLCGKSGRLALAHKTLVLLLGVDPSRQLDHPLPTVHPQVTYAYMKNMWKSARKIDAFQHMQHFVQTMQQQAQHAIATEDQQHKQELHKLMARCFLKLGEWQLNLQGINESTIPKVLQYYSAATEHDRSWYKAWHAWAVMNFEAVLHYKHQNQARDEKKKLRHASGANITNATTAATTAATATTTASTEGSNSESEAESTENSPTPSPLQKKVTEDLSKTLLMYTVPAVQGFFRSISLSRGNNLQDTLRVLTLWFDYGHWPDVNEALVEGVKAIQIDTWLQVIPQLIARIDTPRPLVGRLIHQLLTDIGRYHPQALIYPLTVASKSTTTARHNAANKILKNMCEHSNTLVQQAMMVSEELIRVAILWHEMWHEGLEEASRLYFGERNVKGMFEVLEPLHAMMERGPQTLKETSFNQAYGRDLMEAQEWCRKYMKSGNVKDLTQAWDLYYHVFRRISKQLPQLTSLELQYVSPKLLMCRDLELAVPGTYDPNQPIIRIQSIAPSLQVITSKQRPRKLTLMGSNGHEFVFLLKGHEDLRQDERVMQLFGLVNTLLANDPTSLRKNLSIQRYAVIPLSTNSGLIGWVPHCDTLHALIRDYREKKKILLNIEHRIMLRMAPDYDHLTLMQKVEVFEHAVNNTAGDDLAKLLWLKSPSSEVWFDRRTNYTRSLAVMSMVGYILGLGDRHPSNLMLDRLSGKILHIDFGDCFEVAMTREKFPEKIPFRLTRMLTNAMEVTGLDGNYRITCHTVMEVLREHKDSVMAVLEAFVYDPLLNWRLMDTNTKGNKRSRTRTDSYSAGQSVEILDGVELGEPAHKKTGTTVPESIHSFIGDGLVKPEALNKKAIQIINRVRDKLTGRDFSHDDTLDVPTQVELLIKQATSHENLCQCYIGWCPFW
Chain of PI3K-γ (P48736 whole entry, species assumed): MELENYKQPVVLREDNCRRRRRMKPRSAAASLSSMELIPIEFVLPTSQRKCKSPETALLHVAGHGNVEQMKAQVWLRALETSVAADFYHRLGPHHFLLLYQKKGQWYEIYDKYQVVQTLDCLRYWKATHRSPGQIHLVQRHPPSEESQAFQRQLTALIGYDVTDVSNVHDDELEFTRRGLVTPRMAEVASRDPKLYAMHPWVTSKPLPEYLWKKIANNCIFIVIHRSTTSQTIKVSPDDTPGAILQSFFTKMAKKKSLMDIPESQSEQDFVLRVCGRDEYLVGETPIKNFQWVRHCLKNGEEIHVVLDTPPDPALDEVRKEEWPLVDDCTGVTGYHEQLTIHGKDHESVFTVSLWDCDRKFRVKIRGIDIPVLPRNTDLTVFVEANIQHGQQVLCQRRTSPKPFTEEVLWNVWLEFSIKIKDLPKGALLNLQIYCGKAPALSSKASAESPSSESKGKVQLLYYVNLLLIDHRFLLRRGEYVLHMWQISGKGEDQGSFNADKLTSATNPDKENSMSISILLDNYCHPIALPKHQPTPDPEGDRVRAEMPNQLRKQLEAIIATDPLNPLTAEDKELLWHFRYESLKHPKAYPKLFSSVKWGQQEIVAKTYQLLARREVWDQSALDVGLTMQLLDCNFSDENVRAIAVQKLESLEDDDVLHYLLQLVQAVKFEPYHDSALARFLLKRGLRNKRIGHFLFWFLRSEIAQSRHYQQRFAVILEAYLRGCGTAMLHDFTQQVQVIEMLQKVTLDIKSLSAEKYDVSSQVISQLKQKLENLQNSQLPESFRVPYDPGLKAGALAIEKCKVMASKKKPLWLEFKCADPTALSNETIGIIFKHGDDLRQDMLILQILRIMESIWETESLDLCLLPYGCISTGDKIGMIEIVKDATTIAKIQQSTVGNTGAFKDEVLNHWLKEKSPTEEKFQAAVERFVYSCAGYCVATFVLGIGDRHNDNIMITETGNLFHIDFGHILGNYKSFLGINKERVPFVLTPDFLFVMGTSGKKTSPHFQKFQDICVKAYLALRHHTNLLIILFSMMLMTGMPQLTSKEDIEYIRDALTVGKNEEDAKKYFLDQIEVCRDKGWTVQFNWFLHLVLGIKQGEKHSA
Chain of PI3K-α (P42336 whole entry, species assumed): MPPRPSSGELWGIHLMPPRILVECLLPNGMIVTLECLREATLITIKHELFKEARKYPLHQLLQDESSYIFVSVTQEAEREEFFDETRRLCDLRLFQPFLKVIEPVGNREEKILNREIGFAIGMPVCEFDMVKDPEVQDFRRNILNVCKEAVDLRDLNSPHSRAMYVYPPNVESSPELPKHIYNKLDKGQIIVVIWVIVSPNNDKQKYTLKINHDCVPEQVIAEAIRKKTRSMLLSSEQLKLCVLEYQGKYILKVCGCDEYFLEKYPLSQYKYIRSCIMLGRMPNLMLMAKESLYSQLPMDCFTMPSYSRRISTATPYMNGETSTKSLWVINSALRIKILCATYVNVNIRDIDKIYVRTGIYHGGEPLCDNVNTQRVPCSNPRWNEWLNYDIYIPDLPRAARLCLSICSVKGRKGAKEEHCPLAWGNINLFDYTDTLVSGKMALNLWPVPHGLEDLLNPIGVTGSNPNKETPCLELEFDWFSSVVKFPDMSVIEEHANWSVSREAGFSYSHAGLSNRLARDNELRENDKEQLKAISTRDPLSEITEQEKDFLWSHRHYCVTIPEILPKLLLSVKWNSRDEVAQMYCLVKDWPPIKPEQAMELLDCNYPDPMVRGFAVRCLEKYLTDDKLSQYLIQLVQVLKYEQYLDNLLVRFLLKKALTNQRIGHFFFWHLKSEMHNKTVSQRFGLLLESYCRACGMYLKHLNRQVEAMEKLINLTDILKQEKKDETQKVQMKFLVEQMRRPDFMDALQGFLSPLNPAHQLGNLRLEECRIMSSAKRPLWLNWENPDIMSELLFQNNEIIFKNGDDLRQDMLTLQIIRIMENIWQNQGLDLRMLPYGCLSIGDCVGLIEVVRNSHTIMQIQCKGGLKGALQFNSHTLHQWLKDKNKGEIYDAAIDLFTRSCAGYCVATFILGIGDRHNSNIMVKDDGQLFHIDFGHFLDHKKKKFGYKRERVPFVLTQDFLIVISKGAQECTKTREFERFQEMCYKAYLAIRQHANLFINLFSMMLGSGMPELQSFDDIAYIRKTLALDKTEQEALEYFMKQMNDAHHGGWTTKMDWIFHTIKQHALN
Chain of PI3K-α (P27986 whole entry partner, species assumed): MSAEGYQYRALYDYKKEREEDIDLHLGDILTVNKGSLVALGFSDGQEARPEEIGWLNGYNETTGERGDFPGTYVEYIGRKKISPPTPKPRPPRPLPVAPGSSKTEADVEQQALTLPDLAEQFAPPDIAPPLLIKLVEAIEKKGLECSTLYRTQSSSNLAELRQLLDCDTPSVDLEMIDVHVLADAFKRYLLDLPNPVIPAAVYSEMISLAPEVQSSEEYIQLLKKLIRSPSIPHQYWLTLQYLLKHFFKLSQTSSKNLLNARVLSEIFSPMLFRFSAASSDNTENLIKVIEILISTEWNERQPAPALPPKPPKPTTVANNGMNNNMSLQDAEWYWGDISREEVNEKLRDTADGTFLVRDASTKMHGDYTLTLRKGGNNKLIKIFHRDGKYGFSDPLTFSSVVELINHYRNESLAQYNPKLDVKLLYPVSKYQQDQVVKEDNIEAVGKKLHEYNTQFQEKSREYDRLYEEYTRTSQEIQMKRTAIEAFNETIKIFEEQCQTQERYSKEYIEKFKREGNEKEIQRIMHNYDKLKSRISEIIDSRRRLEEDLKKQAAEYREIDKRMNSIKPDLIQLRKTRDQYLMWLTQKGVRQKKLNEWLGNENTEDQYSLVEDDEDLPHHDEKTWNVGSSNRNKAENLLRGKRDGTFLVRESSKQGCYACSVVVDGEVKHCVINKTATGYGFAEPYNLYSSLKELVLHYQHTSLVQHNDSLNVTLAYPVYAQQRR

Molecule | IC50 (Human mTOR (FLAG-TOR)) | IC50 (PI3K-α) [nM] | IC50 (PI3K-γ) [nM] | IC50 [1, 3] [nM] | IC50 [2, 4] [nM] | also measured
1-{4-[4-(4-methylphenyl)-6-morpholin-4-yl-1,3,5-triazin-2-yl]phenyl}-3-[4-(pyrrolidin-1-ylcarbonyl)phenyl]urea [Example 553] | 19.5 nM | 12.5 | 72 | – | – | IC50 ([1]; MTS cell growth assay, three days after drug treatment, PC3-mm2 cells, read-out: IC50 PC3-mm2): 522 nM; IC50 ([2]; MTS cell growth assay, three days after drug treatment, MDA-MB-361 cells, read-out: IC50 MDA-MB-361): 113 nM
O=C(Nc1ccccc1)Nc1ccc(-c2nc(N3CCOCC3)nc(N3CCOCC3)n2)cc1 [Example 3, 1-[4-(4,6-dimorpholin-4-yl-1,3,5-triazin-2-yl)phenyl]-3-phenylurea] | 3.85 nM | 3 | 27 | 43 | 45 | –
O=C(Nc1ccccc1)Nc1ccc(-c2nc(NC3CNC3)nc(N3CCOCC3)n2)cc1 [Example 17, 1-{4-[4-(azetidin-3-ylamino)-6-morpholin-4-yl-1,3,5-triazin-2-yl]phenyl}-3-phenylurea] | 14 nM | 8 | 90 | 994 | 501 | –
O=C(Nc1ccc(-c2nc(NC3CNC3)nc(N3CCOCC3)n2)cc1)Nc1cccnc1 [Example 18, 1-{4-[4-(azetidin-3-ylamino)-6-morpholin-4-yl-1,3,5-triazin-2-yl]phenyl}-3-pyridin-3-ylurea] | 36 nM | 9 | 71 | 7100 | 2660 | –
O=C(Nc1ccc(F)cc1)Nc1ccc(-c2nc(NC3CNC3)nc(N3CCOCC3)n2)cc1 [Example 19, 1-{4-[4-(azetidin-3-ylamino)-6-morpholin-4-yl-1,3,5-triazin-2-yl]phenyl}-3-(4-fluorophenyl)urea] | 39 nM | 23 | 206 | 1600 | 1030 | –
Cc1ccc(NC(=O)Nc2ccc(-c3nc(NC4CNC4)nc(N4CCOCC4)n3)cc2)cc1 [Example 20, 1-{4-[4-(azetidin-3-ylamino)-6-morpholin-4-yl-1,3,5-triazin-2-yl]phenyl}-3-(4-methylphenyl)urea] | 30.5 nM | 41 | 258 | > 10000 | > 10000 | –
O=C(Nc1ccncc1)Nc1ccc(-c2nc(N3CCOCC3)nc(N3C4CCC3COC4)n2)cc1 [Example 34, 1-{4-[4-morpholin-4-yl-6-(3-oxa-8-azabicyclo[3.2.1]oct-8-yl)-1,3,5-triazin-2-yl]phenyl}-3-pyridin-4-ylurea] | 0.49 nM and 0.48 nM | 9 | 95 | 41 | 28 | IC50 (PI3K-α; listed as 669): 8 nM; IC50 [1, 5]: 41 nM; IC50 (PI3K-γ; listed as 669): 89 nM
NC(=O)c1ccc(NC(=O)Nc2ccc(-c3nc(N4CCOCC4)nc(N4C5CCC4COC5)n3)cc2)cc1 [Example 35, 4-[({4-[4-morpholin-4-yl-6-(3-oxa-8-azabicyclo[3.2.1]oct-8-yl)-1,3,5-triazin-2-yl]phenyl}carbamoyl)amino]benzamide] | 0.21 nM and 0.212 nM | 6 | 54 | 27.5 | 22.5 | IC50 (PI3K-α; listed as 670): 5 nM; IC50 [1, 5]: 27.5 nM; IC50 (PI3K-γ; listed as 670): 53 nM
O=C(Nc1ccc(-c2nc(N3CCOCC3)nc(N3C4CCC3COC4)n2)cc1)Nc1cccnc1 [Example 36, 1-{4-[4-morpholin-4-yl-6-(3-oxa-8-azabicyclo[3.2.1]oct-8-yl)-1,3,5-triazin-2-yl]phenyl}-3-pyridin-3-ylurea] | 0.51 nM and 0.505 nM | 17 | 150 | 98 | 73 | IC50 (PI3K-α; listed as 671): 17.5 nM; IC50 [1, 5]: 98 nM; IC50 ([2]; Homo sapiens, MDA-MB-361, 72 h, MTS cell growth assay, three days after drug treatment, MDA-MB-361 cells, read-out: IC50 MDA-MB-361): 73 nM; IC50 (PI3K-γ; listed as 671): 150 nM
CC(C)N1CCN(C(=O)c2ccc(NC(=O)Nc3ccc(-c4nc(N5CCOCC5)nc(N5C6CCCC5COC6)n4)cc3)cc2)CC1 [Example 805, 1-(4-{[4-(1-methylethyl)piperazin-1-yl]carbonyl}phenyl)-3-{4-[4-morpholin-4-yl-6-(3-oxa-9-azabicyclo[3.3.1]non-9-yl)-1,3,5-triazin-2-yl]phenyl}urea] | 0.415 nM | – | 64 | – | – | IC50 ([1]; Homo sapiens, PC3MM2, 72 h, PC3-mm2 cells, MTS, three days after drug treatment, read-out: IC50 PC3-mm2): 13 nM; IC50 ([2]; Homo sapiens, MDA-MB-361, 72 h, MDA-MB-361 cells, MTS, three days after drug treatment, read-out: IC50 MDA-MB-361): 3 nM

The remaining molecules from weak to strong by IC50 (Human mTOR (FLAG-TOR)), led by results:

IC50 (Human mTOR (FLAG-TOR)) | IC50 (PI3K-α) [nM] | IC50 (PI3K-γ) [nM] | IC50 [1, 3] [nM] | IC50 [2, 4] [nM] | Molecule | also measured
11.5 nM | 51 | 879 | 845 | 603 | CC(C)(C)OC(=O)N1CC(Nc2nc(-c3ccc(NC(=O)Nc4ccc(F)cc4)cc3)nc(N3CCOCC3)n2)C1 [Example 13, tert-butyl 3-{[4-(4-{[(4-fluorophenyl)carbamoyl]-amino}phenyl)-6-morpholin-4-yl-1,3,5-triazin-2-yl]amino}azetidine-1-carboxylate] | –
8.45 nM | 25 | 154 | 590 | 376 | CC(C)(C)OC(=O)N1CC(Nc2nc(-c3ccc(NC(=O)Nc4ccccc4)cc3)nc(N3CCOCC3)n2)C1 [Example 14, tert-butyl 3-[(4-morpholin-4-yl-6-{4-[(phenylcarbamoyl)amino]phenyl}-1,3,5-triazin-2-yl)amino]azetidine-1-carboxylate] | –
6.3 nM | 17 | 438 | 43 | 45 | Cc1ccc(NC(=O)Nc2ccc(-c3nc(N4CCOCC4)nc(N4CCOCC4)n3)cc2)cc1 [Example 5, 1-[4-(4,6-dimorpholin-4-yl-1,3,5-triazin-2-yl)phenyl]-3-(4-methylphenyl)urea] | –
6 nM | 6 | 53 | 43 | 45 | O=C(Nc1ccc(F)cc1)Nc1ccc(-c2nc(N3CCOCC3)nc(N3CCOCC3)n2)cc1 [Example 6, 1-[4-(4,6-dimorpholin-4-yl-1,3,5-triazin-2-yl)phenyl]-3-(4-fluorophenyl)urea] | –
4.75 nM | 12 | 142 | 2440 | 1420 | O=C(Nc1ccncc1)Nc1ccc(-c2nc(NC3CNC3)nc(N3CCOCC3)n2)cc1 [Example 22, 1-{4-[4-(azetidin-3-ylamino)-6-morpholin-4-yl-1,3,5-triazin-2-yl]phenyl}-3-pyridin-4-ylurea] | –
4.05 nM | 58 | 105 | 258 | 264 | Cc1ccc(NC(=O)Nc2ccc(-c3nc(N4CCOCC4)nc(N4CC5CCC(C4)O5)n3)cc2)cc1 [Example 25, 1-(4-methylphenyl)-3-{4-[4-morpholin-4-yl-6-(8-oxa-3-azabicyclo[3.2.1]oct-3-yl)-1,3,5-triazin-2-yl]phenyl}urea] | –
4 nM | 10 | 65 | 161 | 102 | COc1ccc(NC(=O)Nc2ccc(-c3nc(N4CCOCC4)nc(N4CCOCC4)n3)cc2)cc1 [Example 9, 1-[4-(4,6-dimorpholin-4-yl-1,3,5-triazin-2-yl)phenyl]-3-(4-methoxyphenyl)urea] | –
2.7 nM | 22 | 99 | 142 | 122 | O=C(Nc1ccc(F)cc1)Nc1ccc(-c2nc(N3CCOCC3)nc(N3CC4CCC(C3)O4)n2)cc1 [Example 24, 1-(4-fluorophenyl)-3-{4-[4-morpholin-4-yl-6-(8-oxa-3-azabicyclo[3.2.1]oct-3-yl)-1,3,5-triazin-2-yl]phenyl}urea] | –
2.5 nM | 23 | 177 | 328 | 255 | CC(C)(C)OC(=O)N1CC(Nc2nc(-c3ccc(NC(=O)Nc4cccnc4)cc3)nc(N3CCOCC3)n2)C1 [Example 15, tert-butyl 3-[(4-morpholin-4-yl-6-{4-[(pyridine-3-ylcarbamoyl)amino]phenyl}-1,3,5-triazin-2-yl)amino]azetidine-1-carboxylate] | –
2.05 nM | 18 | 51 | 147 | 104 | O=C(Nc1ccccc1)Nc1ccc(-c2nc(N3CCOCC3)nc(N3CC4CCC(C3)O4)n2)cc1 [Example 23, 1-{4-[4-morpholin-4-yl-6-(8-oxa-3-azabicyclo[3.2.1]oct-3-yl)-1,3,5-triazin-2-yl]phenyl}-3-phenylurea] | –
1.75 nM | 22 | 92 | 246 | 129 | CC(C)(C)OC(=O)N1CC(Nc2nc(-c3ccc(NC(=O)Nc4ccncc4)cc3)nc(N3CCOCC3)n2)C1 [Example 21, tert-butyl 3-[(4-morpholin-4-yl-6-{4-[(pyridine-4-ylcarbamoyl)amino]phenyl}-1,3,5-triazin-2-yl)amino]azetidine-1-carboxylate] | –
1.3 nM | 3 | 29 | – | – | O=C(Nc1ccncc1)Nc1ccc(-c2nc(N3CCOCC3)nc(N3CCOCC3)n2)cc1 [Example 1, 1-[4-(4,6-dimorpholin-4-yl-1,3,5-triazin-2-yl)phenyl]-3-pyridin-4-ylurea] | IC50 ([1]; Homo sapiens, PC3MM2, 72 h, read-out: IC50 PC3-mm2, MTS cell growth assay, three days after drug treatment): 43 nM; IC50 ([2]; Homo sapiens, MDA-MB-361, 72 h, read-out: IC50 MDA-MB-361, MTS cell growth assay, three days after drug treatment): 45 nM
